Experimental data taken from patent publication US4962200A, “Nitrogen-containing compound” (Mitsui Petrochemical Industries, Ltd., priority 1987, dated 1990).

System: formation of peroxide lipids (rat brain homogenate)
Assay: activity of inhibiting formation of peroxide lipids (TBA assay, rat brain homogenate supernatant)
Type: biochemical, rat (Wistar)
Details: final concentration 10^-4 M, pH 7.4, 37° C., 30 minutes, malondialdehyde by TBA assay vs control, 100 µM
Method: With respect to the compounds of the present invention, the activity of inhibiting formation of peroxide lipids was tested according to the following procedures.
Male rats of the Wistar system having a body weight of 200 to 250 g were used. The rat brain was extracted by beheading and homogenized by 50 mM phosphate buffer solution (pH 7.4)(PBS), and centrifugal separation was conducted for 15 minutes under 1000 G. The supernatant was frozen at -30° C. and stored, and when the test was carried out, the frozen supernatant was thawed in running water and diluted with PBS so that the volume was trebled, whereby a living body sample was prepared.
Two samples were formed by adding 10 μl of a solution of the test compound (the final concentration was 10^-4 M) to 990 μl of the living body sample. One sample was incubated at 37° C. for 30 minutes and 0.2 ml of a 35% solution of perchloric acid was added to stop the reaction. The other sample was not incubated but the solution of perchloric acid was immediately added to stop the reaction. Both the reaction liquids were subjected to centrifugal separation at 3000 rpm for 15 minutes. With respect to each sample, by using 0.5 ml of the supernatant, the amount of the peroxide lipid was determined according to the TBA assay [Okawa et al., Anal. Biochem., 95. 351 (1979)], and the difference between both the measured values was determined as the amount of malondialdehyde (MDS)(the unit: nmole/mg protein). The peroxide lipid inhibition ratio was calculated from this MDA amount (A) and the control value (B) (the MDA amount obtained when the test compound was not added) according to the following formula: [formula]

Point of comparison: CCOC(=O)c1cnc(C)nc1CN1CCCc2ccccc21 [Compound 15], “Inhibition Ratio (%) (peroxide lipid inhibition ratio)” value 100.0%. Against it:
- Cn1cncc1CN1CCCc2ccccc21 [Compound 1] — lower, 99.0%
- Cc1nc(CN2CCCc3ccccc32)cs1 [Compound 3] — lower, 88.7%
- Cc1nc(CN2CCc3ccccc32)cs1 [Compound 4] — lower, 84.6%
- c1csc(CN2CCCc3ccccc32)c1 [Compound 5] — lower, 93.6%
- c1csc(CN2CCc3ccccc32)c1 [Compound 6] — lower, 95.4%
- CN(C)C(=O)n1cnc(CN2c3ccccc3CCc3ccccc32)c1 [Compound 9, 1-(N,N-dimethylcarbamoyl)-4-(10,11-dihydro-5H-dibenzo[b,f]azepin-5-ylmethyl)imidazole] — lower, 94.0%
- c1coc(CN2CCc3ccccc32)c1 [Compound 10] — lower, 87.0%
- c1coc(CN2CCOc3ccccc32)c1 [Compound 11, 4-(2-furyl)methyl-3,4-dihydro-2H-benzooxazine] — lower, 56.0%
- Cc1ncoc1CN1CCCc2ccccc21 [Compound 12] — lower, 97.8%
- c1coc(CCCN2CCCc3ccccc32)c1 [Compound 13] — lower, 90.5%
- c1ccc(CN2CCCc3ccccc32)nc1 [Compound 14] — the same, 100.0%
- CCOC(=O)c1cnc(-c2ccccc2)nc1CN1CCCc2ccccc21 [Compound 16] — the same, 100.0%
- CCOC(=O)c1cncnc1CN1CCCc2ccccc21 [Compound 17] — the same, 100.0%
- O=C1C=C(OCCN2CCCc3ccccc32)C(=O)c2ccccc21 [Compound 18] — lower, 97.9%
- c1coc(CN2CCSc3ccccc32)c1 [Compound 19, 4-(2-furyl)methyl-3,4-dihydro-2H-1,4-benzothiazine] — lower, 80.9%
- Cc1ccc2c(c1)CCCN2Cc1ccco1 [Compound 20] — lower, 85.1%
- Clc1ccc2c(c1)CCCN2Cc1ccco1 [Compound 21] — lower, 87.2%
